Reference: patent US6706663B2, “Herbicidal 3-heterocyclic substituted benzisothiazole and benzisoxazole compounds” (Wyeth, priority 2000, dated 2004)

Tests used:
[1] = test system: MOOVA (Monochoria vaginalis); test: Flooded paddy, preemergence weed control; type: in vivo, Presl.; settings: rated 3-4 weeks after treatment, 0-9 rating scale
Procedure, shortened: (§1)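 In this preemergence paddy assay, weed seeds or organs are sown at up to 0.5 cm in silt loam and covered by 1.5–3 cm of water for the full test period. After treatment the pots are kept in a greenhouse, and herbicidal effect is rated 0-9 visually against a control.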

ORYSAT (Rice, Tebonnet) = test: Flooded paddy, post-transplant and postemergence rice tolerance; type: in vivo, Oryza sativa, (L.) Tebonnet; settings: post-transplant rice, rated 3-4 weeks after treatment
Procedure, shortened: (§2)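 Flood water 1.5-3 cm deep throughout; test compound dosed into it as 50/50 v/v aqueous/acetone, ~0.0320-0.2500 kg/ha ai. Plants: weeds 3-5 cm tall, rice seedlings 1.5-2.5 leaf. Read-out 3-4 wk later, visual 0-9 vs control.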

[2] = test system: TRZAWR (Wheat, Winter, cv Riband); test: Postemergence herbicidal evaluation; type: in vivo, Triticum aestivum; settings: for TRZAWR herbicidal rating: postemergence
Procedure, shortened: (§3)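 Seedlings grown about two weeks in flats, sprayed, then kept under standard greenhouse care. Rated visually 4–5 weeks after treatment on a 0–9 scale (stand, vigour, malformation, size, chlorosis, overall appearance) relative to untreated control; repeat tests averaged.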

[3] = test system: MOOVA (Monochoria vaginalis); test: Flooded paddy, postemergence weed control; type: in vivo, Presl.; settings: postemergence weeds, rated 3-4 weeks after treatment
Procedure, shortened: as §2

CYPIR (Cyperus iria) [4] = test: Flooded paddy, postemergence weed control; type: in vivo; settings: postemergence weeds, rated 3-4 weeks after treatment
Procedure, shortened: as §2

[5] = test system: GLXMAW (Soybean, Williams); test: Preemergence herbicidal evaluation; type: in vivo, Glycine max, (L.) Merr. cv Williams; settings: rated 4-5 weeks after treatment
[6] = test system: ECHORC (Echinochloa oryzoides); test: Flooded paddy, preemergence weed control; type: in vivo, Echinochloa oryzoides (Ard.) Fritsch.; settings: rated 3-4 weeks after treatment, 0-9 rating scale
Procedure, shortened: as §1

SETVI (Setaria viridis) [7] = test: Postemergence herbicidal evaluation; type: in vivo, (L.) Beau; settings: for SETVI herbicidal rating: postemergence
Procedure, shortened: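 Visual injury score (0-9: stand, vigor, malformation, size, chlorosis, overall appearance vs untreated control) taken four to five weeks post-spray. Two-week-old seedlings received about 0.0040 to 1.000 kg/ha active compound in acetone/water with 0.5% TWEEN 20.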

SETVI (Setaria viridis) [8] = test: Preemergence herbicidal evaluation; type: in vivo, (L.) Beau; settings: rated 4-5 weeks after treatment
Procedure, shortened: (§4)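 Visual 0–9 rating versus control (stand, vigor, malformation, size, chlorosis, overall appearance), scored four to five weeks post-treatment. Preemergence spray of aqueous acetone solution onto freshly seeded soil cups; plants grown under conventional greenhouse care.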

[9] = test system: ECHCG (Echinochloa crus-galli); test: Preemergence herbicidal evaluation; type: in vivo, (L.) Beau; settings: rated 4-5 weeks after treatment
Procedure, shortened: as §4

CYPIR (Cyperus iria) [10] = test: Flooded paddy, preemergence weed control; type: in vivo; settings: rated 3-4 weeks after treatment, 0-9 rating scale
Procedure, shortened: as §1

[11] = test system: ECHORC (Echinochloa oryzoides); test: Flooded paddy, postemergence weed control; type: in vivo, Echinochloa oryzoides (Ard.) Fritsch.; settings: postemergence weeds, rated 3-4 weeks after treatment
Procedure, shortened: as §2

ZEAMX (Corn, Field) = test: Preemergence herbicidal evaluation; type: in vivo, Zea mays, L.; settings: rated 4-5 weeks after treatment
[12] = test system: SAGPY (Sagittaria pygmaea); test: Flooded paddy, postemergence weed control; type: in vivo, L.; settings: postemergence weeds, rated 3-4 weeks after treatment
Procedure, shortened: as §2

[13] = test system: IPOHE (Ipomoea hederacea); test: Postemergence herbicidal evaluation; type: in vivo, (L.) Jacq.; settings: for IPOHE herbicidal rating: postemergence
Procedure, shortened: as §3

[14] = test system: CYPSE (Cyperus serotinus); test: Flooded paddy, postemergence weed control; type: in vivo, Rottb.; settings: postemergence weeds, rated 3-4 weeks after treatment
Procedure, shortened: as §2

## Cc1cc(C)c(-c2nsc3ccc(-n4c(=O)cc(C(F)(F)F)n(C)c4=O)cc23)s1 [Compound 27, 3-[3-(3,5-dimethyl-2-thienyl)-1,2-benzisothiazol-5-yl]-1-methyl-6-(trifluoromethyl)uracil]
[1]; rate 0.0080 kg/ha
  herbicidal rating, MOOVA: 6.0
[1]; rate 0.0320 kg/ha
  herbicidal rating, MOOVA: 9.0
[1]; rate 0.1250 kg/ha
  herbicidal rating, MOOVA: 9.0
ORYSAT (Rice, Tebonnet); 0.0320 kg/ha into flood water
  herbicide rating (0-9) ORYSAT (rice tolerance): 2.0
ORYSAT (Rice, Tebonnet); 0.0620 kg/ha into flood water
  herbicide rating (0-9) ORYSAT (rice tolerance): 4.0
ORYSAT (Rice, Tebonnet); 0.1250 kg/ha into flood water
  herbicide rating (0-9) ORYSAT (rice tolerance): 6.0
[2]; rate 0.0320 kg/ha
  Postemergence herbicidal rating, TRZAWR: 5.0
[2]; rate 0.0620 kg/ha
  Postemergence herbicidal rating, TRZAWR: 5.5
[3]; 0.0320 kg/ha into flood water
  herbicide rating (0-9) MOOVA: 6.0
[3]; 0.0620 kg/ha into flood water
  herbicide rating (0-9) MOOVA: 9.0
[3]; 0.1250 kg/ha into flood water
  herbicide rating (0-9) MOOVA: 9.0
CYPIR (Cyperus iria) [4]; 0.0320 kg/ha into flood water
  herbicide rating (0-9) CYPIR: 9.0
CYPIR (Cyperus iria) [4]; 0.0620 kg/ha into flood water
  herbicide rating (0-9) CYPIR: 9.0
CYPIR (Cyperus iria) [4]; 0.1250 kg/ha into flood water
  herbicide rating (0-9) CYPIR: 9.0
[5]; Rate 0.0620 kg/ha
  GLXMAW preemergence herbicidal rating: 1.0
[5]; Rate 0.1250 kg/ha
  GLXMAW preemergence herbicidal rating: 2.0
[5]; Rate 0.2500 kg/ha
  GLXMAW preemergence herbicidal rating: 1.0
[6]; rate 0.0080 kg/ha
  herbicidal rating, ECHORC: 6.5
[6]; rate 0.0320 kg/ha
  herbicidal rating, ECHORC: 9.0
[6]; rate 0.1250 kg/ha
  herbicidal rating, ECHORC: 9.0
SETVI (Setaria viridis) [7]; rate 0.0320 kg/ha
  Postemergence herbicidal rating, SETVI: 7.0
SETVI (Setaria viridis) [7]; rate 0.0620 kg/ha
  Postemergence herbicidal rating, SETVI: 9.0
SETVI (Setaria viridis) [8]; Rate 0.0620 kg/ha
  SETVI preemergence herbicidal rating: 9.0
SETVI (Setaria viridis) [8]; Rate 0.1250 kg/ha
  SETVI preemergence herbicidal rating: 9.0
SETVI (Setaria viridis) [8]; Rate 0.2500 kg/ha
  SETVI preemergence herbicidal rating: 9.0
[9]; Rate 0.0620 kg/ha
  ECHCG preemergence herbicidal rating: 6.0
[9]; Rate 0.1250 kg/ha
  ECHCG preemergence herbicidal rating: 7.0
[9]; Rate 0.2500 kg/ha
  ECHCG preemergence herbicidal rating: 7.0
CYPIR (Cyperus iria) [10]; rate 0.0080 kg/ha
  herbicidal rating, CYPIR: 4.5
CYPIR (Cyperus iria) [10]; rate 0.0320 kg/ha
  herbicidal rating, CYPIR: 9.0
CYPIR (Cyperus iria) [10]; rate 0.1250 kg/ha
  herbicidal rating, CYPIR: 9.0
[11]; 0.0320 kg/ha into flood water
  herbicide rating (0-9) ECHORC: 0.0
[11]; 0.0620 kg/ha into flood water
  herbicide rating (0-9) ECHORC: 7.0
[11]; 0.1250 kg/ha into flood water
  herbicide rating (0-9) ECHORC: 9.0
ZEAMX (Corn, Field); Rate 0.0620 kg/ha
  ZEAMX preemergence herbicidal rating: 3.0
ZEAMX (Corn, Field); Rate 0.1250 kg/ha
  ZEAMX preemergence herbicidal rating: 3.0
ZEAMX (Corn, Field); Rate 0.2500 kg/ha
  ZEAMX preemergence herbicidal rating: 3.0
[12]; 0.0320 kg/ha into flood water
  herbicide rating (0-9) SAGPY: 0.0
[12]; 0.0620 kg/ha into flood water
  herbicide rating (0-9) SAGPY: 0.0
[12]; 0.1250 kg/ha into flood water
  herbicide rating (0-9) SAGPY: 0.0
[13]; rate 0.0320 kg/ha
  Postemergence herbicidal rating, IPOHE: 9.0
[13]; rate 0.0620 kg/ha
  Postemergence herbicidal rating, IPOHE: 9.0
[14]; 0.0320 kg/ha into flood water
  herbicide rating (0-9) CYPSE: 0.0
[14]; 0.0620 kg/ha into flood water
  herbicide rating (0-9) CYPSE: 0.0
[14]; 0.1250 kg/ha into flood water
  herbicide rating (0-9) CYPSE: 4.0

## Cn1c(C(F)(F)F)cc(=O)n(-c2ccc3snc(-c4sccc4Cl)c3c2)c1=O [Compound 52, 3-[3-(3-chloro-2-thienyl)-1,2-benzisothiazol-5-yl]-1-methyl-6-(trifluoromethyl)uracil]
[1]; rate 0.0080 kg/ha
  herbicidal rating, MOOVA: 9.0
[1]; rate 0.0320 kg/ha
  herbicidal rating, MOOVA: 9.0
[1]; rate 0.1250 kg/ha
  herbicidal rating, MOOVA: 9.0
ORYSAT (Rice, Tebonnet); 0.0320 kg/ha into flood water
  herbicide rating (0-9) ORYSAT (rice tolerance): 4.0
ORYSAT (Rice, Tebonnet); 0.0620 kg/ha into flood water
  herbicide rating (0-9) ORYSAT (rice tolerance): 6.0
ORYSAT (Rice, Tebonnet); 0.1250 kg/ha into flood water
  herbicide rating (0-9) ORYSAT (rice tolerance): 7.0
[2]; rate 0.0320 kg/ha
  TRZAWR herbicidal rating: 4.0
[2]; rate 0.0620 kg/ha
  TRZAWR herbicidal rating: 4.0
[2]; rate 0.1250 kg/ha
  TRZAWR herbicidal rating: 5.0
[3]; 0.0320 kg/ha into flood water
  herbicide rating (0-9) MOOVA: 2.0
[3]; 0.0620 kg/ha into flood water
  herbicide rating (0-9) MOOVA: 2.0
[3]; 0.1250 kg/ha into flood water
  herbicide rating (0-9) MOOVA: 9.0
CYPIR (Cyperus iria) [4]; 0.1250 kg/ha into flood water
  herbicide rating (0-9) CYPIR: 9.0
[5]; Rate 0.0620 kg/ha
  Preemergence herbicidal rating GLXMAW: 1.5
[5]; Rate 0.1250 kg/ha
  Preemergence herbicidal rating GLXMAW: 4.0
[5]; Rate 0.2500 kg/ha
  Preemergence herbicidal rating GLXMAW: 9.0
[6]; rate 0.0080 kg/ha
  herbicidal rating, ECHORC: 8.5
[6]; rate 0.0320 kg/ha
  herbicidal rating, ECHORC: 9.0
[6]; rate 0.1250 kg/ha
  herbicidal rating, ECHORC: 9.0
SETVI (Setaria viridis) [7]; rate 0.0320 kg/ha
  SETVI herbicidal rating: 9.0
SETVI (Setaria viridis) [7]; rate 0.0620 kg/ha
  SETVI herbicidal rating: 9.0
SETVI (Setaria viridis) [7]; rate 0.1250 kg/ha
  SETVI herbicidal rating: 9.0
SETVI (Setaria viridis) [8]; Rate 0.0620 kg/ha
  Preemergence herbicidal rating SETVI: 9.0
SETVI (Setaria viridis) [8]; Rate 0.1250 kg/ha
  Preemergence herbicidal rating SETVI: 9.0
SETVI (Setaria viridis) [8]; Rate 0.2500 kg/ha
  Preemergence herbicidal rating SETVI: 9.0
[9]; Rate 0.0620 kg/ha
  Preemergence herbicidal rating ECHCG: 7.5
[9]; Rate 0.1250 kg/ha
  Preemergence herbicidal rating ECHCG: 8.5
[9]; Rate 0.2500 kg/ha
  Preemergence herbicidal rating ECHCG: 9.0
CYPIR (Cyperus iria) [10]; rate 0.0080 kg/ha
  herbicidal rating, CYPIR: 9.0
CYPIR (Cyperus iria) [10]; rate 0.0320 kg/ha
  herbicidal rating, CYPIR: 9.0
CYPIR (Cyperus iria) [10]; rate 0.1250 kg/ha
  herbicidal rating, CYPIR: 9.0
[11]; 0.0320 kg/ha into flood water
  herbicide rating (0-9) ECHORC: 6.0
[11]; 0.0620 kg/ha into flood water
  herbicide rating (0-9) ECHORC: 9.0
[11]; 0.1250 kg/ha into flood water
  herbicide rating (0-9) ECHORC: 8.0
ZEAMX (Corn, Field); Rate 0.0620 kg/ha
  Preemergence herbicidal rating ZEAMX: 1.5
ZEAMX (Corn, Field); Rate 0.1250 kg/ha
  Preemergence herbicidal rating ZEAMX: 3.5
ZEAMX (Corn, Field); Rate 0.2500 kg/ha
  Preemergence herbicidal rating ZEAMX: 7.0
[12]; 0.0320 kg/ha into flood water
  herbicide rating (0-9) SAGPY: 0.0
[12]; 0.0620 kg/ha into flood water
  herbicide rating (0-9) SAGPY: 0.0
[12]; 0.1250 kg/ha into flood water
  herbicide rating (0-9) SAGPY: 4.0
[13]; rate 0.0320 kg/ha
  IPOHE herbicidal rating: 9.0
[13]; rate 0.0620 kg/ha
  IPOHE herbicidal rating: 9.0
[13]; rate 0.1250 kg/ha
  IPOHE herbicidal rating: 9.0
[14]; 0.0620 kg/ha into flood water
  herbicide rating (0-9) CYPSE: 7.0
[14]; 0.1250 kg/ha into flood water
  herbicide rating (0-9) CYPSE: 8.0
